Peptide text beside a SMILES is read from it. l = locked nucleic acid (LNA); [5mC] = 5-methylcytosine; d = 2'-deoxy (DNA)
Tests used:
Assay type in all cases: cell-based, human
IL-1B = IL-1B level in supernatant of colonic explant culture (ELISA), ex vivo biopsy high throughput platform; conditions: 12 h; for IL-1B levels / effectiveness at reducing IL1B levels, compared with the other inhibitors: 10 uM; for IL-1B levels: supernatant of UC active disease colonic biopsy replicate, vs untreated control well; for effectiveness at reducing IL1B levels, compared with the other inhibitors: UC colonic explant
Description: (§1) Step 1: A biopsy was obtained from a macroscopically disease area of the inflammatory intestinal mucosa of an IBD patient. Samples can be from small or large intestine and the patient can be afflicted with, or suspected of having, UC or CD. The medium used to transport mucosal colonic biopsies from IBD patients was pre-cooled on ice, and comprised: Dulbecco's Modified Eagle Medium (DMEM) liquid (High Glucose), 4 mM L-alanyl-L-glutamine dipeptide, 1% penicillin/streptomycin and […] gentamicin. Tissue culture was initiated less than 1 hour after collection.
(§2) Step 2: Once in the laboratory, the biopsy was washed in Hank's Balanced Salt Solution buffer for a few minutes (e.g., 2-5 min) and cut with sterile scalpels to create biopsy pieces (approximately 2-5 um sections). Media comprising Dulbecco's Modified Eagle Medium (DMEM) liquid (High Glucose), 4 mM L-alanyl-L-glutamine dipeptide, 1% FBS, 1% non-essential amino acids, 1% Sodium Pyruvate, 1% penicillin/streptomycin, […] gentamicin and 5 ug/ml insulin-transferrin-selenium-X, was pre-warmed at 37° C. and added to the pieces of the biopsy. The average volume of media for each biopsy was 1.5 mL, which allows generation of 10 replicates in a 96 well plate (150 uL/well) or 60 replicates in a 384 well plate (25 uL/well). The plates then were cultured in a humidified chamber with 95% O2 and 5% CO2. The 96-and 384-well plates are two non-limiting embodiments of the platform assay disclosed herein, though additional embodiments of the high throughput platform disclosed herein can be used to predict drug responses by evaluating multi-omic signatures in other multi-well formats.
(§3) An embodiment of the ex vivo biopsy high throughput platform was used to assess the effects of G9A inhibitors BIX01294 (cat. No 3364, Tocris) and UNC0642 (cat. No 5132, Tocris), JMJD3 inhibitors GSK-J4 (cat. No 4594, Tocris) and JIB-04 (cat. No 4972, Tocris), and an EZH2 inhibitor UNC1999 (cat. No 4904, Tocris) (10 uM) on a multi-omic response, evaluating cytokine production levels and global chromatin H3K9me2 and H3K27me3 levels in UC active disease colonic explants.
(§4) Specifically, a UC active disease colonic biopsy was processed as described in Example 1 and separated into 6 replicates in a 96-well plate. One well was used as control and the rest were treated with each compound at the concentration of 10 uM. Twelve hours later, 50 uL of supernatant was collected to evaluate IL-1B (#KHC0011, ThermoFisher) and TNFA levels (#BMS223HS, ThermoFisher); meanwhile, the tissue pellet was also collected and processed to check H3K9me2 (#P-3032, Epigentek) and H3K27me3 (#P-3020,Epigentek) levels by ELISA assay.
(§5) The biopsy was processed as described in Example 1. Briefly, one well was used as control and treated with RNA-negative control (miR-NC, cat no. YI00199006, Qiagen) (1 uM), a second well was treated with the miR-24-A inhibitor (1 uM), and a third well was treated with miR-24-B inhibitor (1 uM). 50 uL of supernatant was collected to evaluate IL1B and TNFA levels and tissue pellet was collected and processed for RNA extraction (miRNeasy Kit, Qiagen). MicroRNA LNA miRNA PCR assays (Qiagen) were performed for miR-24-3p (cat.no YP00204260, Qiagen).

TNFA = TNFA level in supernatant of colonic explant culture (ELISA), ex vivo biopsy high throughput platform; conditions: 12 h; for TNFA levels / effectiveness at reducing TNFA levels, compared with the other inhibitors: 10 uM; for TNFA levels: supernatant of UC active disease colonic biopsy replicate, vs untreated control well; for effectiveness at reducing TNFA levels, compared with the other inhibitors: UC colonic explant
Description: as §1, §2, §3, §4, §5

miR-24-3p = miR-24-3p expression in UC colonic explant culture (LNA miRNA PCR assay); conditions: 1 uM, 12 h, UC colonic explant tissue pellet
Description: as §1
as §2, with “The 96-and 384-well plates are two non-limiting embodiments of the platform assay disclosed herein, though additional embodiments of the high throughput platform disclosed herein can be used to predict drug responses by evaluating multi-omic signatures in other multi-well formats.” left out

H3K9me2 = experiment: Global chromatin H3K9me2 level in colonic explant tissue pellet (ELISA); conditions: 10 uM, 12 h, tissue pellet of UC colonic explant
Description: as §1
as §2, with “The 96-and 384-well plates are two non-limiting embodiments of the platform assay disclosed herein, though additional embodiments of the high throughput platform disclosed herein can be used to predict drug responses by evaluating multi-omic signatures in other multi-well formats.” left out

H3K27me3 = experiment: Global chromatin H3K27me3 level in colonic explant tissue pellet (ELISA); conditions: 10 uM, 12 h, tissue pellet of UC colonic explant
Description: as §1
as §2, with “formats. […]” for “formats.”

IBD colonic explants = experiment: Cell viability of colonic explants (CellTiter-Blue assay)
Description: as §1
Step 3: Cell viability evaluation. To evaluate the effects of any drug using a colonic explant assay, the viability of the colonic explant in culture is examined. The experimental conditions related to the culture viability of the colonic explants were optimized by focusing on the media composition during the transfer of the biopsy from the patient biopsy collection site to the laboratory and the duration of culturing the explant.
CellTiter-Blue assay (Promega) was used to evaluate cell viability of the colonic explants. Briefly, the CellTiter-Blue reagent was added in the culture and the fluorescent signal was measured (560/590 nm) after 1 h of incubation in 37° C. […]

[1] = 1 uM, UC colonic explant supernatant, control miR-NC

Compound	IL-1B levels (IL-1B)	TNFA levels (TNFA)	H3K27me3 levels (H3K27me3)	further results
5-CTG^mCTGAA^mCTGAG^mCCA-3 (antisense CTGCTGAACTGAGCCA; sugars from the 5' end l3 d6 l2 d3 l2, [5mC] at 4, 9, 14, all phosphorothioate, methylation of C not given here) [miR-24-A, antisense-miR-24-3p compound; phosphorothioate linkages bases 1-16, LNA at bases 1-3, 10-11, 15-16,5-methylcytosine at positions 4,9, 14]	–	–	–	reducing IL1B levels, compared to miR-24-B inhibitor (IL-1B; [1]): more effective; reducing TNFA levels, compared to miR-24-B inhibitor (TNFA; [1]): more effective; miR-24-3p expression levels, compared to miR-24-B inhibitor (miR-24-3p): more effectively suppressed
COc1cc2nc(N3CCCN(C)CC3)nc(NC3CCN(Cc4ccccc4)CC3)c2cc1OC [BIX01294]	reduced	reduced	–	H3K9me2 levels (H3K9me2): reduced
CCOC(=O)CCNc1cc(N2CCc3ccccc3CC2)nc(-c2ccccn2)n1 [GSK-J4]	reduced	reduced	increased	effectiveness at reducing IL1B levels, compared with the other inhibitors (IL-1B): more effective than BIX01294 and JIB-04; effectiveness at reducing TNFA levels, compared with the other inhibitors (TNFA): more effective than BIX01294 and JIB-04
Clc1ccc(N/N=C(\c2ccccc2)c2ccccn2)nc1 [JIB-04]	reduced	reduced	increased	–
C[C@H](N)C(=O)N[C@@H](CCC(N)=O)C(=O)O [L-alanyl-L-glutamine dipeptide] (H-Ala-Gln-OH)	–	–	–	cell viability of colonic explants (IBD colonic explants; added to the transfer media (DMEM, penicillin/streptomycin, gentamicin)): substantial increase in cell viability; concentration identified to have the highest cell viability (IBD colonic explants; in transfer media): 4 mM
COc1cc2c(NC3CCN(C(C)C)CC3)nc(N3CCC(F)(F)CC3)nc2cc1OCCCN1CCCC1 [UNC0642]	reduced	reduced	–	effectiveness at reducing IL1B levels, compared with the other inhibitors (IL-1B): more effective than BIX01294 and JIB-04; effectiveness at reducing TNFA levels, compared with the other inhibitors (TNFA): more effective than BIX01294 and JIB-04; H3K9me2 levels (H3K9me2): reduced
CCCc1cc(C)[nH]c(=O)c1CNC(=O)c1cc(-c2ccc(N3CCN(C(C)C)CC3)nc2)cc2c1cnn2C(C)C [UNC1999]	increased	increased	reduced	–

From US20250244312A1, “EX VIVO COLONIC BIOPSY PLATFORM TO EVALUATE MULTI-OMIC SIGNATURES FOR SCREENING CANDIDATE THERAPEUTICS” (Athos Therapeutics, Inc., priority 2020, published 2025)
